Experimental data: ChEMBL document CHEMBL1151825, “Schisanwilsonenes A-C, anti-HBV Carotane sesquiterpenoids from the fruits of Schisandra wilsoniana” (J Nat Prod, 2009)

Tests used:
[1] = system: Hepatitis B virus; assay: Antiviral activity against HBV infected in human HepG2 2.2.15 cells assessed as inhibition of HBsAg secretion at 50 ug/mL after 9 days by ELISA; assay type: functional; details: HepG2, 216 h
[2] = system: Hepatitis B virus; assay: Antiviral activity against HBV infected in human HepG2 2.2.15 cells assessed as inhibition of HBeAg secretion at 50 ug/mL after 9 days by ELISA; assay type: functional; details: HepG2, 216 h
[3] = system: Hepatitis B virus; assay: Antiviral activity against HBV infected in human HepG2 2.2.15 cells assessed as inhibition of HBsAg secretion at 25 ug/mL after 9 days by ELISA; assay type: functional; details: HepG2, 216 h
[4] = Cytotoxicity of human HepG2(2.2.15) cells assessed as growth inhibition at 200 ug/mL by MTT assay; assay type: cell-based
[5] = system: Hepatitis B virus; assay: Antiviral activity against HBV infected in human HepG2 2.2.15 cells assessed as inhibition of HBeAg secretion at 25 ug/mL after 9 days by ELISA; assay type: functional; details: HepG2, 216 h
[6] = Cytotoxicity of human HepG2(2.2.15) cells assessed as growth inhibition at 100 ug/mL by MTT assay; assay type: cell-based
[7] = system: Hepatitis B virus; assay: Antiviral activity against HBV infected in human HepG2 2.2.15 cells assessed as inhibition of HBeAg secretion at 100 ug/mL after 9 days by ELISA; assay type: functional; details: HepG2, 216 h
[8] = system: Hepatitis B virus; assay: Antiviral activity against HBV infected in human HepG2 2.2.15 cells assessed as inhibition of HBsAg secretion at 100 ug/mL after 9 days by ELISA; assay type: functional; details: HepG2, 216 h
[9] = system: Hepatitis B virus; assay: Antiviral activity against HBV infected in human HepG2 2.2.15 cells assessed as inhibition of HBeAg secretion at 200 ug/mL after 9 days by ELISA; assay type: functional; details: HepG2, 216 h
[10] = system: Hepatitis B virus; assay: Antiviral activity against HBV infected in human HepG2 2.2.15 cells assessed as inhibition of HBsAg secretion at 200 ug/mL after 9 days by ELISA; assay type: functional; details: HepG2, 216 h

SMILES | inhibition at 50 µg/mL [1] [%] | inhibition at 50 µg/mL [2] [%] | inhibition at 25 µg/mL [3] [%] | inhibition at 200 ug/mL [4] [%] | inhibition at 25 µg/mL [5] [%] | inhibition at 100 ug/mL [6] [%] | inhibition at 100 µg/mL [7] [%] | inhibition at 100 µg/mL [8] [%] | inhibition at 200 µg/mL [9] [%] | inhibition at 200 µg/mL [10] [%]
CC(C)(O)[C@@H]1CC[C@@]2(C)CCC(CO)=CC[C@H]12 (relative stereo) [SCHISANWILSONENE A] | 76.5 | 28.9 | 27.5 | ≥ 25 | 11.3 | ≥ 25 | – | – | – | –
CC(=O)OCC1=CC[C@@H]2[C@H](C(C)(C)O)CC[C@@]2(C)CC1 (relative stereo) [SCHISANWILSONENE B] | 20.5 | 0 | 5.6 | ≥ 25 | 0 | – | 0 | 58.6 | – | –
CC(C)(O)[C@@H]1CC[C@@]2(C)CCC(C=O)=CC[C@H]12 (relative stereo) [SCHISANWILSONENE C] | 5.5 | 1.4 | 0 | – | 1.1 | – | 6.1 | 11.7 | 8.8 | 28.3
Nc1ccn([C@@H]2CS[C@H](CO)O2)c(=O)n1 [LAMIVUDINE] | – | – | – | – | – | – | – | – | 34.8 | 28.6
